Laboratory results as given in PMC10877733, “Discovery and Characterization of VU0542270, the First Selective Inhibitor of Vascular Kir6.1/SUR2B KATP Channels” (Molecular Pharmacology, 2024).
Values joined by “and” are separate entries in the source; they are usually repeats but may differ in a detail not shown here. Identical values can stand only once.

Legend:
Kir6.1/SUR2B = biological target: T1, Kir6.1/SUR2B (Homo sapiens, UniProt O60706); test: Whole-cell patch clamp electrophysiology, T-Rex-HEK293-Kir6.1/SUR2B cells; format: cell-based
T1 construct: expressed in transfected cells; also transiently transfected HEK293T
T1 sequence (O60706 1-1549 isoform O60706-2, species assumed): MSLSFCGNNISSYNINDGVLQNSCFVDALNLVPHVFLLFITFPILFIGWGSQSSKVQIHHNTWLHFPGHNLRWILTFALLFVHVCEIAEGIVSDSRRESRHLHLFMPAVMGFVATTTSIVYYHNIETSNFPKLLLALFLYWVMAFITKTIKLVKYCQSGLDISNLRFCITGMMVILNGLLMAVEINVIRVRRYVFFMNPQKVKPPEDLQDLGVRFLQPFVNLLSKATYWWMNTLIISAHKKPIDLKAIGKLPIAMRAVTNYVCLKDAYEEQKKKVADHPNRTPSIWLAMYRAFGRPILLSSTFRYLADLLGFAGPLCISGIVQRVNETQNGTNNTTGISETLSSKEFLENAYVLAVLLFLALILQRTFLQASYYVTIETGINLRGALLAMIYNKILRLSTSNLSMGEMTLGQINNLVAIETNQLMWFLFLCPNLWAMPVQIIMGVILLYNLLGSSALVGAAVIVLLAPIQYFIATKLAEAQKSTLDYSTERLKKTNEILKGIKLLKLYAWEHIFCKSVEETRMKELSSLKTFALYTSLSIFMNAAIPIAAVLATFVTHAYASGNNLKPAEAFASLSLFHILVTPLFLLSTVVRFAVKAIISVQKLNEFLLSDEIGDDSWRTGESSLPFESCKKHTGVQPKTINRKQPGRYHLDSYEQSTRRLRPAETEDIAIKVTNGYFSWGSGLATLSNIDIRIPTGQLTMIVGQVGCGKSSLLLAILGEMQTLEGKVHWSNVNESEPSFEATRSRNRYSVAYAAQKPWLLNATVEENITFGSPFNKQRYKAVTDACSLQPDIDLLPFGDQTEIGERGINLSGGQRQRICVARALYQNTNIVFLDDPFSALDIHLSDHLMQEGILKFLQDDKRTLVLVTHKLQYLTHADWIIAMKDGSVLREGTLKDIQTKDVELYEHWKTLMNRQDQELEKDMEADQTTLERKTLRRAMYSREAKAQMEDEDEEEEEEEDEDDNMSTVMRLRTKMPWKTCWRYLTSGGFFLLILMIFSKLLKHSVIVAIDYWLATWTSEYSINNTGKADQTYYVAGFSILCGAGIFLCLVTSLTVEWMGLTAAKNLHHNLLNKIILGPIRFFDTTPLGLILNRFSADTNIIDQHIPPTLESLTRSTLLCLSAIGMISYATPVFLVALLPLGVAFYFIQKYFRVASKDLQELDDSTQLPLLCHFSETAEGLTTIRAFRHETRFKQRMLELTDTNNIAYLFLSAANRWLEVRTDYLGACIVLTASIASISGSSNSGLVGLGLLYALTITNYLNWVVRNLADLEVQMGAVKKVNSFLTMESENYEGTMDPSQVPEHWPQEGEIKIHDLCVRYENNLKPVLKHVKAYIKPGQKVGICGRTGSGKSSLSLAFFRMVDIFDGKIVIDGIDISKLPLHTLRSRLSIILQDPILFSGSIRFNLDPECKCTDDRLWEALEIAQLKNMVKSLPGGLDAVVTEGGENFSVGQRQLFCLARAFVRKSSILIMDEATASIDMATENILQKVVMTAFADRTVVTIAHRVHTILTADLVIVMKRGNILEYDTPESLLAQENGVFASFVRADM
T1 sequence (Q15842 whole entry partner, species assumed): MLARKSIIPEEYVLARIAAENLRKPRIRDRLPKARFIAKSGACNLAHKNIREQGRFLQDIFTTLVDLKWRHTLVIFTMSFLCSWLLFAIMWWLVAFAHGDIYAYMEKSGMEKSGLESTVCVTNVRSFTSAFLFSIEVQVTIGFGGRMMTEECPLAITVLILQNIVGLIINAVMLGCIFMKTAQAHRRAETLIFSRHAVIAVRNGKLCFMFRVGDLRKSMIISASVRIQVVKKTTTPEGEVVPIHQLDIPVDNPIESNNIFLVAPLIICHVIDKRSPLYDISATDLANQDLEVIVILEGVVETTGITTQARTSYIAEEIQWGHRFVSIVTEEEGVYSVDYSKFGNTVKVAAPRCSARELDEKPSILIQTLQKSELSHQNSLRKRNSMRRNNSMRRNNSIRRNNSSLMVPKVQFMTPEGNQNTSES
Description: T-Rex-HEK293-Kir6.1/SUR2B cells were plated into tissue culture-treated 35-mm polystyrene dishes at a density of 250,000 cells and cultured in a 5% CO2 incubator at 37°C. Whole-cell patch-clamp recordings were performed 48 hours after plating. Cells were dissociated on the experiment day and plated on poly-L-lysine–coated coverslips and allowed to recover for at least 1 hour in a 37°C/5% CO2 incubator before beginning experiments. Patch electrodes (2 to 3 MΩ) were filled with an intracellular solution containing 130 mM KCl, 2 mM MgCl2, 1 mM EGTA, 20 mM HEPES-free acid, and 2 mM Na2ATP (Roche Diagnostics, Risch-Rotkreuz, Switzerland), pH 7.3, titrated with KOH, and osmolarity 275 mOsmol/kg of water (adjusted with sucrose). The standard bath solution contained 135 mM NaCl, 5 mM KCl, 2 mM CaCl2, 1 mM MgCl2, 5 mM glucose, and 10 mM HEPES-free acid, pH 7.4, titrated with NaOH. Serial dilutions of compounds were first made in DMSO and then in bath solution so that the final DMSO concentration was 0.1% v/v across all test doses. Macroscopic currents were recorded under voltage-clamp conditions using an Axopatch 200B Amplifier (Molecular Devices, Sunnyvale, CA). Data were collected at 5 kHz and filtered at 1 kHz. […] IC50 values were determined by fitting the Hill equation to CRCs using variable-slope nonlinear regression analyses. […]

[1] = Intrinsic clearance in liver microsomes, rat; format: in vitro ADME
Description: The in vitro intrinsic clearance (CLint) of VU0542270 was investigated in commercially obtained hepatic microsomes from rat, mouse, and human donors using the substrate depletion (i.e., loss-of-parent versus time, or t1/2 method) approach with analyte detection via LC-MS/MS. For each species, mean per cent parent remaining values at each time point were calculated from replicates raw data (analyte:IS peak area ratios) and used to determine in vitro t1/2 and CLint.
Experiments were carried out using a robot-assisted liquid handling system (TECAN model Evo 200). VU0542270 was incubated (1 µM final concentration) in buffer (100 mM potassium phosphate, pH 7.4, with 3 mM MgCl2) containing hepatic microsomes (0.5 mg/mL final concentration) from multiple species, discretely, at 37°C under constant orbital shaking. After 5 minutes (preincubation), reactions were initiated by the addition of NADPH (1 mM final concentration). At selected time intervals (0, 3, 7, 15, 25, and 45 minutes) post addition of NADPH, aliquots (50 µL) were taken and placed into a 96-shallow-well plate containing ice-cold acetonitrile (150 µL) with carbamazepine (IS, 50 nM). The plates were then centrifuged (3000 rcf at 4°C) for 10 minutes. […]
Predicted hepatic clearance (CLhep) was calculated using the following equation: [drawing 4] […]

## Cc1nc(-c2cccs2)sc1CNC(=O)Nc1cccs1 [VU0542270]
Kir6.1/SUR2B; 1 µM pinacidil-activated, normalized to maximal inhibition by 10 µM VU0542270, read-out: Kir6.1/SUR2B IC50, whole-cell current
  IC50: ~279 nM and 278 nM
Kir6.1/SUR2B; 10 µM compound in continued presence of 1 µM pinacidil
  inhibition of KATP current: complete inhibition
[1]; corrected to plasma unbound fraction
  Predicted CLhep,u (rat): 6.0 mL/min per kg
[1]; from microsomal CLint
  Predicted CLhep (rat): 63 mL/min per kg
